From ChEMBL document CHEMBL1201862, “PubChem BioAssay data set” (2004)
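Growth conditions: 96-well plates. Treatment: test compound, 48 hours, 5 concentrations. Analysis: linear interpolation between bracketing concentrations; unreached endpoints set to highest concentration. GI50 is the concentration that inhibits growth by half.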 Active and inactive are the calls of the source. Rule as the data show it: active = GI50 up to about 1.1 µM and inactive = higher.

How the values were obtained:
Assay in all cases: inhibition of tumour cell growth, NCI panel, 48 h
HCC 2998 = system: HCC 2998
OVCAR-4 = system: OVCAR-4
ACHN = system: ACHN
SN12C = system: SN12C
OVCAR-3 = system: OVCAR-3
SNB-19 = system: SNB-19
A549 = system: A549
NCI-H522 = system: NCI-H522
SK-MEL-5 = system: SK-MEL-5
CCRF-CEM = system: CCRF-CEM
SK-MEL-2 = system: SK-MEL-2
MDA-N = system: MDA-N
PC-3 = system: PC-3
HT-29 = system: HT-29
HOP-92 = system: HOP-92
EKVX = system: EKVX
SR = system: SR
KM12 = system: KM12
SK-OV-3 = system: SK-OV-3

Measured: GI50

O=[N+]([O-])/C(Cl)=C(/C(Cl)=C(Cl)Cl)N1CCOCC1
inactive: HCC 2998 3.09 µM | OVCAR-4 5.51 µM | ACHN 6.01 µM | SN12C 7.43 µM | OVCAR-3 2.13 µM | SNB-19 17.6 µM | A549 5.73 µM | NCI-H522 2 µM | SK-MEL-5 1.65 µM | CCRF-CEM 1.8 µM | SK-MEL-2 2.12 µM | MDA-N 2.32 µM | PC-3 6.01 µM | HT-29 3.4 µM | HOP-92 2.51 µM | EKVX 6.53 µM | SR 2.21 µM | KM12 3.34 µM | SK-OV-3 13.8 µM

O=C1c2ccccc2-n2c1nc1cc(Cl)ccc1c2=O
inactive: HCC 2998 > 100 µM | OVCAR-4 27.7 µM | ACHN > 100 µM | SN12C > 100 µM | OVCAR-3 23 µM | SNB-19 > 100 µM | A549 66.8 µM | NCI-H522 29.9 µM | SK-MEL-5 20 µM | CCRF-CEM 3.84 µM | SK-MEL-2 43.9 µM | MDA-N 14.5 µM | PC-3 > 100 µM | HT-29 61.9 µM | HOP-92 71.6 µM | EKVX > 100 µM | SR 6.62 µM | KM12 39.9 µM | SK-OV-3 > 100 µM

C=C1CN(Cc2ccccc2)[C@@H]2CCCCC[C@H](C#N)[C@H]12
inactive: HCC 2998 > 100 µM | OVCAR-4 > 100 µM | ACHN > 100 µM | SN12C > 100 µM | OVCAR-3 > 93.1 µM | SNB-19 > 100 µM | A549 78 µM | NCI-H522 65.8 µM | SK-MEL-5 > 100 µM | CCRF-CEM 24.9 µM | SK-MEL-2 > 100 µM | MDA-N > 100 µM | PC-3 > 74.1 µM | HT-29 > 67.5 µM | HOP-92 36.3 µM | EKVX > 100 µM | SR > 47.8 µM | KM12 > 100 µM | SK-OV-3 > 86.9 µM

COC(=O)c1cc(C)ccc1CC(Cc1ccc(C)cc1)C(=O)OC (centres undefined)
inactive: HCC 2998 25.8 µM | OVCAR-4 38.8 µM | ACHN > 100 µM | SN12C > 65.5 µM | OVCAR-3 > 100 µM | SNB-19 > 100 µM | A549 12.9 µM | NCI-H522 7.06 µM | SK-MEL-5 3.48 µM | CCRF-CEM 62.8 µM | SK-MEL-2 25.1 µM | MDA-N 40.6 µM | PC-3 37.8 µM | HT-29 5.58 µM | HOP-92 8.95 µM | EKVX 11.1 µM | SR 7.71 µM | KM12 10.8 µM | SK-OV-3 26.6 µM

O=c1[nH][nH]c(=O)c2c1ccc1oc3ccccc3c12
inactive: HCC 2998 99.3 µM | OVCAR-4 > 100 µM | ACHN > 100 µM | SN12C > 100 µM | OVCAR-3 > 100 µM | SNB-19 > 100 µM | A549 > 100 µM | NCI-H522 > 100 µM | SK-MEL-5 > 100 µM | CCRF-CEM > 100 µM | SK-MEL-2 > 100 µM | MDA-N > 100 µM | PC-3 > 100 µM | HT-29 > 100 µM | HOP-92 > 100 µM | EKVX 56.2 µM | SR > 100 µM | KM12 > 100 µM | SK-OV-3 > 100 µM

CC1CN=C(Nc2cccc(F)c2)S1 (centres undefined)
inactive: HCC 2998 > 100 µM | OVCAR-4 > 100 µM | ACHN > 100 µM | SN12C > 100 µM | OVCAR-3 > 100 µM | SNB-19 > 100 µM | A549 > 100 µM | NCI-H522 > 100 µM | SK-MEL-5 > 100 µM | CCRF-CEM 91 µM | SK-MEL-2 > 100 µM | MDA-N > 100 µM | PC-3 > 100 µM | HT-29 > 100 µM | HOP-92 > 100 µM | EKVX > 100 µM | SR 7.87 µM | KM12 > 100 µM | SK-OV-3 > 100 µM

Brc1c(C#CCC(c2ccccc2)(c2ccccc2)c2ccccc2)ccc(C#CCC(c2ccccc2)(c2ccccc2)c2ccccc2)c1Br
inactive: HCC 2998 > 100 µM | OVCAR-4 > 100 µM | ACHN > 100 µM | SN12C > 100 µM | OVCAR-3 > 100 µM | SNB-19 > 100 µM | A549 > 100 µM | NCI-H522 > 100 µM | SK-MEL-5 > 100 µM | CCRF-CEM > 100 µM | SK-MEL-2 > 100 µM | MDA-N > 100 µM | PC-3 > 100 µM | HT-29 > 100 µM | HOP-92 > 100 µM | EKVX > 100 µM | SR > 100 µM | KM12 > 100 µM | SK-OV-3 > 100 µM

CC1=C2NCN(C)N=C2C(C#N)(C#N)C1(C#N)C#N
inactive: HCC 2998 21 µM | OVCAR-4 20 µM | ACHN 17.9 µM | SN12C 19.5 µM | OVCAR-3 20.4 µM | SNB-19 36.9 µM | A549 > 78.5 µM | NCI-H522 8.87 µM | SK-MEL-5 27.4 µM | CCRF-CEM 2.22 µM | SK-MEL-2 > 61.7 µM | MDA-N 15.6 µM | PC-3 26.9 µM | HT-29 21.4 µM | HOP-92 15.4 µM | EKVX 26 µM | SR 6.49 µM | KM12 > 65.9 µM | SK-OV-3 > 100 µM

CCCC(=O)NC(Nc1cc(C)ccn1)(C(=O)OCC)C(F)(F)F (centres undefined)
inactive: HCC 2998 > 100 µM | OVCAR-4 > 100 µM | ACHN > 100 µM | SN12C > 100 µM | OVCAR-3 > 100 µM | SNB-19 > 100 µM | A549 > 100 µM | NCI-H522 > 100 µM | SK-MEL-5 > 100 µM | CCRF-CEM > 100 µM | SK-MEL-2 > 100 µM | MDA-N > 100 µM | PC-3 > 100 µM | HT-29 > 100 µM | HOP-92 91 µM | EKVX > 100 µM | SR > 100 µM | KM12 > 100 µM | SK-OV-3 > 100 µM

O=c1[nH]c(=O)n(C2OC(CO)C(O)C2O)cc1Oc1ccccc1 (centres undefined)
inactive: HCC 2998 > 100 µM | OVCAR-4 > 100 µM | ACHN > 100 µM | SN12C > 100 µM | OVCAR-3 > 100 µM | SNB-19 > 100 µM | A549 > 100 µM | NCI-H522 > 100 µM | SK-MEL-5 > 100 µM | CCRF-CEM > 100 µM | SK-MEL-2 > 100 µM | MDA-N > 100 µM | PC-3 > 100 µM | HT-29 > 100 µM | HOP-92 > 100 µM | EKVX > 100 µM | SR > 100 µM | KM12 > 100 µM | SK-OV-3 > 100 µM

CCOC(=O)C(C)c1nc2cc(F)c(N3CCOCC3)cc2[nH]c1=O (centres undefined)
inactive: HCC 2998 > 100 µM | OVCAR-4 > 100 µM | ACHN > 100 µM | SN12C > 100 µM | OVCAR-3 > 100 µM | SNB-19 > 100 µM | A549 > 100 µM | NCI-H522 > 100 µM | SK-MEL-5 54.1 µM | CCRF-CEM > 100 µM | SK-MEL-2 > 100 µM | MDA-N > 100 µM | PC-3 71.9 µM | HT-29 > 100 µM | HOP-92 > 100 µM | EKVX > 100 µM | SR > 100 µM | KM12 > 100 µM | SK-OV-3 > 100 µM
